Source: patent US20150247149A1, “Detecting and Treating Liver Damage” (The Regents of the University of California, priority 2012, published 2015)

Test system: VNN1
Assay: VNN1 expression in HepG2 and HepG2-derived MPs (Western blotting, flow cytometry, QPCR)
Type: cell-based, human
Settings: HepG2 exposed to 0.25 mM FFA
Description: HepG2 were trypsinized and 8×10^5 cells were seeded in a 6-well plate. To knockdown VNN1 or PPARα in hepatocytes, HepG2 were incubated with 50 nM of silencing RNA (siRNA) for VNN1 or PPARα and control siRNA (Ctrl siRNA) dissolved in Lipofectamine 2000 (Life Technologies, Carlsbad, Calif., USA). Transfection was performed according to the manufacturer instructions. After 48 h post transfection, cells were treated with 0.25 mM of palmitic acid for 24 h and microparticles were isolated from the supernatant by ultracentrifugation. The efficiency of transfection has been confirmed in hepatocytes and microparticles by Western blotting as described in the “Protein analysis” paragraph. […] In vivo VNN1 knockdown experiments during experimental NASH were assessed by weekly injection of VNN1 stealthRNA (Life Technology), control siRNA (Ctrl siRNA) or PBS as vehicle (mock) in C57BL/6 mice fed with the MCD diet for 6 weeks. […]
Tissue (liver, intestine, spleen and kidney) from MCD- and MCS-fed mice (Casp-3−/−, WT, treated with VNN1 siRNA and controls) was homogenized using the FastPrep 24 bead homogenization system. […] The concentration and purity of RNA was assessed by NanoDrop (Thermo Scientific). Quantitative Real time PCR was performed on a BioRad Cycler (BioRad) by using SYBRGreen real time PCR master mix (Kapabiosystem, Woburn, Mass., USA) according to the manufacturer instructions. […]

Row | SMILES | VNN1 expression in MPs from FFA-treated cells (Western blot)
1 | CCCCCCCC/C=C\CCCCCCCC(=O)O [oleic acid] | not
2 | CCCCCCCCCCCCCCCC(=O)O [palmitic acid] | expressed
